Measurements reported in PubChem BioAssay AID977607 (Broad Institute, 2014).
Activity calls are given as the source filed them.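 How the source made its calls: active means curve reaches 40% activation over neutral controls at an AC40 no higher than the top valid tested concentration; inconclusive means no clear call, values can overlap the other calls; inactive means signal moving opposite to the expected increase, and the rest.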

Each compound was assayed on INS-1E GLuc insulin secretion reporter, luminescence, 2-3 h (assay: GLuc-reported insulin release enhancers, glucose-stimulated beta cells – cell-based, INS-1E, Gaussia luciferase, luminescence, cherry-pick, set 2, dose response (AID 977607)).

`COC(=O)c1sccc1NC(=O)COc1ccc(Cl)cc1Cl` and `COc1ccc(NC(=O)COc2ccc(C(=O)NC3CCCc4ccccc43)cc2OC)cc1` (stereo not given) are within 1.5-fold of each other in AC40: 9.33 µM for the first, 6.54 µM for the second.

`CC(C)n1cc(/C(N)=N/O)c(=O)n(Cc2ccccc2)c1=O` and `CCN(CC)c1ccc(N=Cc2c(O)n(Cc3ccccc3)c(=O)[nH]c2=O)cc1` are within 1.5-fold of each other in AC40: 9.39 µM for the first, 11.3 µM for the second.

Compared with `COc1ccc(C2=NN(C(C)=O)C(c3cccs3)C2)cc1OC` (stereo not given), `COc1ccc(OC)c(-c2nnc3n2N=C(c2ccc(OC)c(OC)c2)CS3)c1` is 16-fold lower in AC40: 8.92 µM for the first, 0.564 µM for the second.

`O=C(CC1c2ccccc2Oc2ccccc21)Nc1ccccc1C(F)(F)F` and `OC(CNCCc1ccc(C(F)(F)F)cc1)COC(c1ccccc1)c1ccccc1` (stereo not given) are within 1.5-fold of each other in AC40: 6.13 µM for the first, 6.21 µM for the second.

First: COc1ccc(CCNS(=O)(=O)c2cccc(C)c2)cc1OC
Second: COc1ccc(CCN(C)C(=O)c2oc3ccccc3c2C)cc1OC
The AC40 of the first is 2.9-fold lower: 2.46 µM for the first, 7.06 µM for the second.

`CCCCc1c(-c2ccccc2OC)ncn1Cc1ccccc1C` and `Cc1ccc(C(C)C)c(OCCNCCc2ccccc2)c1` are within 1.5-fold of each other in AC40: 10.4 µM for the first, 15 µM for the second.

Compared with `Cc1ccc(NC(=O)c2ccc(COc3ccc4c(c3)CCC4)cc2)c(C)c1`, `Cc1cc(C)c2nc(N(CCCN(C)C)C(=O)c3ccc4c(c3)CCCC4)sc2c1` is 4.9-fold higher in AC40: 1.27 µM for the first, 6.21 µM for the second.

`COc1cc2nc(N3CCN(c4cc(C)ccc4C)CC3)nc(N)c2cc1OC` and `COc1cc2cnc(-c3cccnc3)cc2cc1OC` are within 1.5-fold of each other in AC40: 8.44 µM for the first, 6.19 µM for the second.

Compared with `COc1cc2cnc(-c3ccsc3)cc2cc1OC`, `COc1cc2ccc(CC(=O)O)cc2cc1OC` is 3.3-fold higher in AC40: 0.826 µM for the first, 2.69 µM for the second.

Compared with `COc1ccc(C(=O)Nc2ccc3c(c2)C(=O)c2ccccc2C3=O)cc1OC`, `COc1ccc(-c2ccc3c(N)c(C(=O)c4ccc(OC)c(OC)c4)sc3n2)cc1` is 4.1-fold lower in AC40: 24.1 µM for the first, 5.83 µM for the second.

`Cc1cccc(Cn2ccc(-c3ccc(Cl)cc3)c(C#N)c2=O)c1` and `COc1cccc(CN2C[C@@H]3N[C@H](C2)C3c2ccc(-c3ccccc3OC)cc2)c1` (stereo not given in full) are within 1.5-fold of each other in AC40: 7 µM for the first, 7.9 µM for the second.

`CC(C)CC#Cc1ccc2c(c1)O[C@@H](CN(C)Cc1ccc(F)cc1)[C@H](C)CN([C@H](C)CO)S2(=O)=O` and `CC(C)CC#Cc1ccc2c(c1)O[C@@H](CN(C)Cc1cccc(F)c1)[C@H](C)CN([C@@H](C)CO)S2(=O)=O` are within 1.5-fold of each other in AC40: 10.4 µM for the first, 7.13 µM for the second.

First: CN(C)CCOc1ccc(-c2c(-c3ccsc3)sc3ccccc23)cc1
Second: CN(C)CCOc1ccc(-c2c(-c3ccccc3)sc3ccccc23)cc1
The AC40 of the first is 4-fold higher: 10.9 µM for the first, 2.75 µM for the second.

First: Cc1cc(NC(=O)c2ccccc2F)n(-c2nc3ccccc3[nH]2)n1
Second: O=c1c2ccccc2sn1-c1ccccc1
The AC40 of the first is 1.8-fold higher: 5.86 µM for the first, 3.25 µM for the second.

`NS(=O)(=O)c1ccc(N=Cc2c(O)n(C3CCCCC3)c(=O)n(C3CCCCC3)c2=O)cc1` and `CC1CCN(S(=O)(=O)c2ccc(C(=O)OCc3ccc4c(c3)OCO4)cc2)CC1` are within 1.5-fold of each other in AC40: 16 µM for the first, 13.4 µM for the second.

Compared with `COC(=O)c1ccc(C2C(Oc3ccc(OC)cc3)C(=O)N2CCc2ccc(F)cc2)cc1` (stereo not given), `CCCCc1ccc(NC(=O)COc2ccc(C(=O)Nc3ccccc3OCC)cc2)cc1` is 4.4-fold lower in AC40: 12.6 µM for the first, 2.88 µM for the second.

Compared with `Cc1ccc(-c2nnc3sc(-c4ccncc4)nn23)cc1`, `Cc1ccc(S(=O)(=O)C=CS(=O)(=O)c2ccc(C)cc2)cc1` is 60-fold lower in AC40: 13.5 µM for the first, 0.224 µM for the second.

`COc1ccc(C2CC(=O)Nc3sc(=N)c4c(N)c(C#N)c(N)nc4c32)cc1OC` (stereo not given) and `COc1ccc(NC(=O)Cn2cnc3c(cnn3-c3ccc(C)c(C)c3)c2=O)c(OC)c1` are within 1.5-fold of each other in AC40: 6.1 µM for the first, 5.6 µM for the second.

Compared with `CCSc1nnc(NC(=O)c2csc3c2CCCC3)s1`, `CC(C)(C)C1CCc2c(sc(NC(=O)c3cccs3)c2C(N)=O)C1` (stereo not given) is 8.2-fold higher in AC40: 2.22 µM for the first, 18.3 µM for the second.

`CCOC(=O)Cn1c(=NC(=O)c2nc3ccccc3s2)sc2cc(S(N)(=O)=O)ccc21` and `CCOC(=O)c1oc2ccccc2c1NC(=O)c1cccs1` are within 1.5-fold of each other in AC40: 11.4 µM for the first, 14 µM for the second.

Going from `CC(C)Nc1nc(Cl)nc(NC(C)C)n1` to `COC(=O)c1ccc2c(c1)NC(=O)C(N(CC(C)C)CC(C)C)S2` (stereo not given), the AC40 falls from 11.6 µM to 5.29 µM (2.2-fold).

`COc1cc(CN2[C@@H]3CNC[C@H]2C3c2ccc(/C=C/c3ccccc3)cc2)cc(OC)c1` (stereo not given in full) and `CC1(C(=O)NCc2cccc3ccccc23)CCN1Cc1ccc(OC(F)(F)F)cc1` (stereo not given) are within 1.5-fold of each other in AC40: 10.3 µM for the first, 14.3 µM for the second.

Compared with `COc1ccc(-c2ccc(-c3noc(-c4ccco4)n3)c(OC)n2)cc1`, `Fc1ccc(-c2cc(C(F)(F)F)nc(-n3cncn3)n2)cc1` is 15-fold lower in AC40: 7.71 µM for the first, 0.52 µM for the second.

`C=CCOc1ccc(-c2nc3c(c(=O)[nH]c(=O)n3CCCC)n2C)cc1Br` and `COc1ccccc1C(=O)NC(=S)NC12CC3CC(CC(C3)C1)C2` are within 1.5-fold of each other in AC40: 11.1 µM for the first, 7.9 µM for the second.

For `COc1ccc(CCNC(=O)NS(=O)(=O)c2ccc(C)cc2)cc1OC`, the AC40 was > 35 µM (inactive).
`COc1ccc(CN(C)C(=O)Cn2cc(C)c(=O)[nH]c2=O)cc1OC` was tested, and the AC40 was > 35 µM (inactive).
`CONc1nc(NC(C)(C)C)nc(OCC#N)n1` was tested, and the AC40 was > 35 µM (inactive).
`Cn1c(=O)c2c(nc3n2CCCN3CCc2ccccc2)n(C)c1=O` was tested, and the AC40 was > 35 µM (inactive).
`CCOc1ncccc1C(=O)Nc1ccccc1F` was tested, and the AC40 was > 35 µM (inactive).
With `CNc1nc(Sc2ccccc2)cc(C(F)(F)F)n1` the AC40 was > 35 µM (inactive).
`COc1ccc(C(=O)Cc2ccc3c(c2)OCO3)c(O)c1` was tested, and the AC40 was > 35 µM (inactive).
